Results as given in US3959311A, “Oxotremorine antagonists” (priority 1967, dated 1976).
Like-named read-outs stand apart in the source and are kept apart here.

Columns and labels:
[1] = system: oxotremorine tremor response; test: Oxotremorine antagonism: affinity constant from shift of median effective tremor dose of oxotremorine (Dixon up-and-down method); format: in vivo, mice; settings: AL-301 set equal to 1.0
Method: It was tested in the following manner:
Four or more groups, each containing six female mice weighing 22 to 26 grams, were selected. To establish a control, each member of the first group was dosed in sequence with oxotremorine in the absence of any test compound.
In the Dixon method the first animal is treated at an arbitrarily selected level and the presence or absence of tremor response is noted. An increased or decreased dosage is then selected according to the schedule specified by the Dixon procedure for the second animal which would tend to produce a change in the tremor response.
For each test group, the increased median effective dose of oxotremorine was determined in the same manner.
To compare the potency of the test compound the affinity constant was obtained from the data. The affinity constant is that concentration of test compound which when administered blocks the oxotremorine response so that twice the concentration of oxotremorine is necessary to evoke the same response as was produced in the absence of the test compound.

[2] = system: diameter of the pupil; test: animal or person; format: in vivo, mice; settings: Mus musculus
Text: (§1) This "tremorolytic" dose is designated as T. As a standard for the peripheral effect the dose of the compound in mg/kg, which doubles the diameter of the pupil, is given. This "mydriatic" dose is designated as M. The ratio between M and T will constitute a standard for specific central effect of the substance. A higher value for M/T corresponds to a higher specificity.

[3] = system: tremoromimetic effects of oxotremorine; format: in vivo, mice
Text: as §1

[4] = system: oxotremorine-induced tremor; settings: cited from earlier work
[5] = dose which doubles the diameter of the pupil, mice, read-out: Mydriatic Dose
[6] = mydriatic dose / tremorolytic dose, higher value = higher specificity

## OC(CCN1CCCCC1)(c1ccccc1)C1CCCCC1 (stereo not drawn) [Artane, α-cyclohexyl-α-phenyl-1-piperidine-propanol, reference compound]
[1]
  Ratio of affinity constant dosages (relative potency): 1.8

## CC(C#CCN1CCCCCC1)N1CCCC1=O (stereo not shown) [N-(1-methyl-4-perhydroazepino-2-butynyl)-pyrrolidin-2-one]
[1]
  Ratio of affinity constant dosages (relative potency): 9.0
[2]; [5]
  ED (doubling of pupil diameter): 2 mg/kg
[3]; mouse, in vivo, iv
  Tremorolytic Dose (T): 0.32 mg/kg
[3]; [6]
  M/T ratio (specific central effect): 6.25

## CC(C#CCN1CCCCC1)N1CCCC1=O (stereo not shown) [N-(1-methyl-4-piperidino-2-butynyl)-pyrrolidin-2-one]
[1]
  Ratio of affinity constant dosages (relative potency): 8.5

## CC(C#CCN1CCCC1)N1CCCC1=O (stereo not shown) [N-(1-methyl-4-pyrrolidino-2-butynyl)-pyrrolidin-2-one]
[1]
  Ratio of affinity constant dosages (relative potency): 17.0
[1]; listed as n = 4
  Ratio of affinity constant dosages (relative potency): 17
[2]; read-out: Mydriatic Dose (M)
  ED (doubling of pupil diameter): 0.62 mg/kg
[3]; dose which inhibits the effect of 150 μg/kg of oxotremorine i.v., mice
  Tremorolytic Dose (T): 0.19 mg/kg
[3]; [6]
  M/T ratio (specific central effect): 3.26

## CN1[C@@H]2CC[C@H]1C[C@@H](OC(=O)C(CO)c1ccccc1)C2 (stereo partly shown) [atropine]
[4]; in words
  antagonism of oxotremorine-induced tremor: antagonize the oxotremorine-induced tremor
  side effect: antagonism of peripheral cholinergic effects of oxotremorine: antagonizing the peripheral cholinergic effects of oxotremorine

## OC(CCN1CCCCC1)(c1ccccc1)C1CCCCC1 (stereo not shown) [benzhexol, reference compound]
[2]; [5]
  ED (doubling of pupil diameter): 1.15 mg/kg
[3]; mouse, in vivo
  M/T ratio (specific central effect): 0.21
[3]; mouse, in vivo, iv
  Tremorolytic Dose (T): 5.5

## CCN(CC)CCOC(=O)C1(c2ccccc2)CCCC1 [caramiphen, 1-phenylcyclopentanecarboxylic acid 2-diethylaminoethyl ester]
[4]; in vivo
  side effect: antagonism of peripheral cholinergic effects of oxotremorine: antagonizing the peripheral cholinergic effects of oxotremorine
[4]; in words
  antagonism of oxotremorine-induced tremor: antagonize the oxotremorine-induced tremor

## O=C1CCCN1CC#CCN1CCCC1 [oxotremorine, N-(4-pyrrolidino-2-butynyl)-pyrrolidin-2-one]
[4]; immediately after injection by intravenous routes, several species of laboratory animals
  effects of oxotremorine: induces violent generalized tremors, spasticity, hypokinesia and parasympathomimetic effects
